From patent US9550796B2, “Pyrrolopyrrolone derivatives and their use as BET inhibitors” (NOVARTIS AG, priority 2013, dated 2017) come the findings set out here.

What is called GI50 is the concentration giving 50% growth inhibition. Read a low GI50 as greater sensitivity of the cells. One may read the IC50 as the concentration that inhibits the measured activity by half. A lower IC50 goes with higher potency.

Assay [1] relates to MV-4-11. In words: Cell growth inhibition assay (CellTiter-Glo), MV-4-11. Format: cell-based, human. The note with it: MV-4-11 cells, 4 days; for GI50: Homo sapiens, MV4-11, 96 h, half-maximal growth inhibition; for MV-4-11 TGI: total growth inhibition. Put shortly:
(§1)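 Proliferation and viability are quantified by CellTiter-Glo after four days of incubation with serially diluted compound (maximum 10 μM). Four-parameter curve fitting gives IC50 and TGI.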
A general note: ATP-based viability assays read luminescence as a measure of living cells.

Assay [2] deals with CREBBP (Homo sapiens (Human), UniProt Q92793). Briefly: AlphaScreen in-vitro binding assay for CREBBP. The note with it: 324 nM His-CREBBP (1081-1197), acetyl-histone H4 (AcK 5, 8, 12) peptide. Put shortly: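 IC50 values were derived by non-linear regression of percent inhibition across 8 compound concentrations. Protein was His-tagged CREBBP bromodomain (1081-1197), peptide acetyl-histone H4 (AcK 5, 8, 12), in HEPES pH 7.5 buffer. Read-out was AlphaScreen with Ni-chelate acceptor and streptavidin donor beads, 35 min at 30° C then 60 min at RT.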

Assay [3] concerns the target BRD4 (Homo sapiens (Human), UniProt O60885). Briefly: TR-FRET in-vitro binding assay for BRD4. The note with it: 45 nM His-Brd4(44-477), acetyl-histone H4 (AcK 5, 8, 12, 16) peptide. The procedure, abridged:
(§2)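 Incubation at 30° C lasted 35 min, followed by TR-FRET measurement; each compound was tested as 8 single-point concentrations.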
(In general: Time-resolved FRET reads energy transfer from a long-lived donor to a nearby acceptor.)

Assay [4] addresses BRD3 (Homo sapiens (Human), UniProt Q15059). In words: TR-FRET in-vitro binding assay for BRD3. The following applies: 45 nM His-Brd3(20-477), acetyl-histone H4 (AcK 5, 8, 12, 16) peptide. The procedure, abridged:
as §2

For assay [5], the system named is K-562. In words: Cell growth inhibition assay (CellTiter-Glo), K-562. Format: cell-based, human. The following applies: K-562 cells, 4 days; for GI50: Homo sapiens, K562, 96 h, half-maximal growth inhibition; for K-562 TGI: total growth inhibition. The procedure, abridged:
as §1

Assay [6] deals with THP-1. Briefly: Cell growth inhibition assay (CellTiter-Glo), THP-1. Format: cell-based, human. The following applies: THP-1 cells, 4 days; for GI50: Homo sapiens, 96 h, half-maximal growth inhibition; for THP-1 TGI: total growth inhibition. The procedure, abridged:
as §1

Chain of BRD3 (Q15059 20-477): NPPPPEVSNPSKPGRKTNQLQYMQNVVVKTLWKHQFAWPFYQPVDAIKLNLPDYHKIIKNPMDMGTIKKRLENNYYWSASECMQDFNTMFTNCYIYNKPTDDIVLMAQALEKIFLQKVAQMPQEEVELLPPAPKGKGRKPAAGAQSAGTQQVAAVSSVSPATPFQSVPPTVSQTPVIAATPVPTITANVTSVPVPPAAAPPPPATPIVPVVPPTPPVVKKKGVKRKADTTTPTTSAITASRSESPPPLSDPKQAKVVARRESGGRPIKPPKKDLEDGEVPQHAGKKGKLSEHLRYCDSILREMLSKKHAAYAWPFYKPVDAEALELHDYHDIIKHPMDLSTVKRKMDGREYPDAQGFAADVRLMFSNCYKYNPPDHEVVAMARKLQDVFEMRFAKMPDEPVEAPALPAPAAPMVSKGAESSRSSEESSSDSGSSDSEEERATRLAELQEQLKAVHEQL
Chain of CREBBP (Q92793 1081-1197): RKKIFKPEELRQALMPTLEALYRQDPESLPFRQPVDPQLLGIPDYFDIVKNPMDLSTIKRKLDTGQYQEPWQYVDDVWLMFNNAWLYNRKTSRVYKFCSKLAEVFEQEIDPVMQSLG

As to `CNC(=O)Nc1cn(C)c2c1C(=O)N(c1cc(C)c3nnn(C)c3c1)C2c1ccc(Cl)cc1` (stereo not drawn) [Example 114, 1-(6-(4-chlorophenyl)-5-(1,4-dimethyl-1H-benzo[d][1,2,3]triazol-6-yl)-1-methyl-4-oxo-1,4,5,6-tetrahydropyrrolo[3,4-b]pyrrol-3-yl)-3-methylurea], the results for the GI50 in assay [1], in assay [5] and in assay [6] were 26.8 nM, 499 nM and 27.1 nM, respectively. Further, in assay [1], the “MV-4-11 TGI” value turned out to be 66 nM. Further, the results for the IC50 in assay [2], in assay [3] and in assay [4] were 1300 nM, 34 nM and 38 nM, respectively. Also, in assay [5], the “K-562 TGI” value was greater than 10000 nM. The “THP-1 TGI” value in assay [6] amounted to 105.2 nM.
Take `Cc1cn(C)c2c1C(=O)N(c1cc(C)c3nnc(C(F)F)n3c1)C2c1ccc(Cl)cc1` (stereo not drawn) [Example 107, 6-(4-chlorophenyl)-5-(3-(difluoromethyl)-8-methyl-[1,2,4]triazolo[4,3-a]pyridin-6-yl)-1,3-dimethyl-5,6-dihydropyrrolo[3,4-b]pyrrol-4(1H)-one]: the values for the concentration for 50% growth inhibition (GI50) in assay [1], in assay [5] and in assay [6] were 7.2 nM, 197 nM and 15.4 nM, respectively. Moreover, the “MV-4-11 TGI” value in assay [1] worked out at 22.95 nM. Further, the IC50 in assay [2] is 27900 nM; in assay [3], 17 nM; in assay [4] it was 21 nM. Also, the “K-562 TGI” value in assay [5] is greater than 10000 nM. Further, the “THP-1 TGI” value in assay [6] was 22 nM.
`CCOC(=O)n1c(-c2cccnc2OC)c(C)c2c1C(c1ccc(Cl)cc1)N(c1cc(C)c3nnc(C)n3c1)C2=O` (stereo not drawn) [Example 124, Ethyl 6-(4-chlorophenyl)-5-(3,8-dimethyl-[1,2,4]triazolo[4,3-a]pyridin-6-yl)-2-(2-methoxypyridin-3-yl)-3-methyl-4-oxo-5,6-dihydropyrrolo[3,4-b]pyrrole-1(4H)-carboxylate]: the values for the GI50 in assay [1], in assay [5] and in assay [6] were 6.58 nM, 41.6 nM and 7.56 nM, respectively. In assay [1], the “MV-4-11 TGI” value was determined as 13.2 nM. Also, the IC50 was found to be 1500 nM in assay [2], 11 nM in assay [3] and 14 nM in assay [4]. For the same molecule, the “K-562 TGI” value in assay [5] is greater than 10000 nM. Also, the “THP-1 TGI” value in assay [6] is 15.8 nM.
For `Cc1cc(N2C(=O)c3c(NC(=O)CN(C)C)cn(C)c3C2c2ccc(Cl)cc2)cn2c(C)nnc12` (stereo not drawn) [Example 116, N-(6-(4-chlorophenyl)-5-(3,8-dimethyl-[1,2,4]triazolo[4,3-a]pyridin-6-yl)-1-methyl-4-oxo-1,4,5,6-tetrahydropyrrolo[3,4-b]pyrrol-3-yl)-2-(dimethylamino)acetamide], the 50% growth inhibitory concentration (GI50) in assay [1] stood at 37.8 nM; in assay [5] it was 288 nM; in assay [6] it was 59.5 nM. In addition, the “MV-4-11 TGI” value in assay [1] came to 87.45 nM. Further, the half-maximal inhibitory concentration (IC50) in assay [2] came to 4200 nM; in assay [3] it was 26 nM; in assay [4] it was 34 nM. In assay [5], the “K-562 TGI” value was greater than 10000 nM. In addition, in assay [6], the “THP-1 TGI” value came to 123 nM.
Take `Cc1cc(N2C(=O)c3cc(C4=CCOCC4)n(C)c3C2c2ccc(Cl)cc2)cn2c(C)nnc12` (stereo in doubt) [Example 137, (R)-6-(4-chlorophenyl)-2-(3,6-dihydro-2H-pyran-4-yl)-5-(3,8-dimethyl-[1,2,4]triazolo[4,3-a]pyridin-6-yl)-1-methyl-5,6-dihydropyrrolo[3,4-b]pyrrol-4(1H)-one]: the GI50 in assay [1] stood at 10 nM; in assay [5], 31.1 nM; in assay [6], 11.1 nM. For the same molecule, the “MV-4-11 TGI” value in assay [1] amounted to 18.75 nM. The IC50 was 590 nM in assay [2], less than 11 nM in assay [3] and 13 nM in assay [4]. Moreover, the “K-562 TGI” value in assay [5] is greater than 10000 nM. The “THP-1 TGI” value in assay [6] turned out to be 22.75 nM.
In the case of `CC(=O)N1CC(c2cn(C)c3c2C(=O)N(c2cc(C)c4nnc(C)n4c2)C3c2ccc(Cl)cc2)C1` (stereo not drawn) [Example 117, 3-(1-acetylazetidin-3-yl)-6-(4-chlorophenyl)-5-(3,8-dimethyl-[1,2,4]triazolo[4,3-a]pyridin-6-yl)-1-methyl-5,6-dihydropyrrolo[3,4-b]pyrrol-4(1H)-one], the GI50 in assay [1] was 124 nM; in assay [5] it was 1490 nM; in assay [6], 184 nM. The “MV-4-11 TGI” value in assay [1] was determined as 217.5 nM. Moreover, the IC50 was determined as 13700 nM in assay [2], 14 nM in assay [3] and 17 nM in assay [4]. In addition, the “K-562 TGI” value in assay [5] is greater than 10000 nM. Besides, in assay [6], the “THP-1 TGI” value worked out at 354 nM.
As for `Cc1cc(N2C(=O)c3c(C(=O)NCCN(C)C)cn(C)c3C2c2ccc(Cl)cc2)cc2c1nnn2C` (stereo not drawn) [Example 112, 6-(4-chlorophenyl)-5-(1,4-dimethyl-1H-benzo[d][1,2,3]triazol-6-yl)-N-(2-(dimethylamino)ethyl)-1-methyl-4-oxo-1,4,5,6-tetrahydropyrrolo[3,4-b]pyrrole-3-carboxamide], the GI50 was 19.4 nM in assay [1], 409 nM in assay [5] and 39.3 nM in assay [6]. For the same molecule, the “MV-4-11 TGI” value in assay [1] came out at 34.75 nM. For the same molecule, the IC50 came out at 17300 nM in assay [2], 120 nM in assay [3] and 64 nM in assay [4]. In addition, the “K-562 TGI” value in assay [5] is greater than 10000 nM. The “THP-1 TGI” value in assay [6] turned out to be 95.95 nM.
Turning to `Cc1cc(N2C(=O)c3c(C4CC4)c(C4=CCOCC4)n(C)c3C2c2ccc(Cl)cc2)cn2c(C)nnc12` (stereo not drawn) [Example 119, 6-(4-chlorophenyl)-3-cyclopropyl-2-(3,6-dihydro-2H-pyran-4-yl)-5-(3,8-dimethyl-[1,2,4]triazolo[4,3-a]pyridin-6-yl)-1-methyl-5,6-dihydropyrrolo[3,4-b]pyrrol-4(1H)-one], the GI50 in assay [1] was found to be 1.24 nM; in assay [5], 11.7 nM; in assay [6], 1.57 nM. Moreover, in assay [1], the “MV-4-11 TGI” value came out at 3.76 nM. Moreover, the IC50 in assay [2] is 1700 nM; in assay [3], less than 11 nM; in assay [4], less than 11 nM. In addition, the “K-562 TGI” value in assay [5] stood at 3740 nM. In addition, in assay [6], the “THP-1 TGI” value was determined as 3.665 nM.
Regarding `Cc1cc(N2C(=O)c3c(C4CNC4)cn(C)c3C2c2ccc(Cl)cc2)nc2c1nnn2C` (stereo not drawn) [Example 130, 3-(azetidin-3-yl)-6-(4-chlorophenyl)-5-(3,7-dimethyl-3H-[1,2,3]triazolo[4,5-b]pyridin-5-yl)-1-methyl-5,6-dihydropyrrolo[3,4-b]pyrrol-4(1H)-one], the GI50 was less than 3 nM in assay [1], 76.3 nM in assay [5] and 12.9 nM in assay [6]. For the same molecule, the “MV-4-11 TGI” value in assay [1] was found to be 6.21 nM. The IC50 in assay [2] turned out to be 12800 nM; in assay [3] it was 12 nM; in assay [4] it was 13 nM. Moreover, the “K-562 TGI” value in assay [5] was 3500 nM. Also, the “THP-1 TGI” value in assay [6] stood at 31 nM.
For `Cc1cn(C2CCN(C)C2=O)c2c1C(=O)N(c1cc(C)c3nnc(C)n3c1)C2c1ccc(Cl)cc1` (stereo not drawn) [Example 126, 6-(4-chlorophenyl)-5-(3,8-dimethyl-[1,2,4]triazolo[4,3-a]pyridin-6-yl)-3-methyl-1-(1-methyl-2-oxopyrrolidin-3-yl)-5,6-dihydropyrrolo[3,4-b]pyrrol-4(1H)-one], the GI50 is 74.6 nM in assay [1], 628 nM in assay [5] and 113 nM in assay [6]. In addition, the “MV-4-11 TGI” value in assay [1] turned out to be 180 nM. For the same molecule, the IC50 was 12900 nM in assay [2], 43 nM in assay [3] and 48 nM in assay [4]. Also, in assay [5], the “K-562 TGI” value was greater than 10000 nM. Also, the “THP-1 TGI” value in assay [6] is 315.5 nM.
For `CC(=O)Nc1cn(C)c2c1C(=O)N(c1cc(C)c3nnc(C(F)F)n3n1)C2c1ccc(Cl)cc1` (stereo not drawn) [Example 109, N-(6-(4-chlorophenyl)-5-(3-(difluoromethyl)-8-methyl-[1,2,4]triazolo[4,3-b]pyridazin-6-yl)-1-methyl-4-oxo-1,4,5,6-tetrahydropyrrolo[3,4-b]pyrrol-3-yl)acetamide], the figures for the GI50 in assay [1], in assay [5] and in assay [6] were 19.4 nM, 114 nM and 17.3 nM, respectively. In addition, the “MV-4-11 TGI” value in assay [1] was 40.75 nM. For the same molecule, the IC50 is greater than 37000 nM in assay [2], 23 nM in assay [3] and 20 nM in assay [4]. Further, the “K-562 TGI” value in assay [5] is greater than 10000 nM. In addition, in assay [6], the “THP-1 TGI” value worked out at 38.6 nM.
For `COc1ncccc1-c1c(C2CC2)c2c(n1C)C(c1ccc(Cl)cc1)N(c1cc(C)c3nnc(C)n3c1)C2=O` (stereo not drawn) [Example 120, 6-(4-chlorophenyl)-3-cyclopropyl-5-(3,8-dimethyl-[1,2,4]triazolo[4,3-a]pyridin-6-yl)-2-(2-methoxypyridin-3-yl)-1-methyl-5,6-dihydropyrrolo[3,4-b]pyrrol-4(1H)-one], the GI50 was found to be 3.02 nM in assay [1], 25.4 nM in assay [5] and 3.67 nM in assay [6]. Moreover, in assay [1], the “MV-4-11 TGI” value stood at 5.053 nM. Besides, the IC50 is 1600 nM in assay [2], less than 11 nM in assay [3] and less than 11 nM in assay [4]. In addition, the “K-562 TGI” value in assay [5] was greater than 7000 nM. Moreover, the “THP-1 TGI” value in assay [6] came to 5.503 nM.
